Source: publication doi:10.1101/2021.04.08.439011v1 (biorxiv, 2021)
Where two headings read alike, the source gives them in different places.

Columns and labels:
MAP4K3 = MAP4K3 (Homo sapiens, UniProt Q8IVH8); conditions: 1 µM; binder
MUSK = MUSK (Homo sapiens, UniProt O15146); conditions: 1 µM; binder
CDK8 = CDK8 (Homo sapiens, UniProt P49336); conditions: 1 µM; binder
RPS6KA2 = RPS6KA2 (Homo sapiens, UniProt Q15349); conditions: binder
ERBB3 = ERBB3 (Homo sapiens, UniProt P21860); conditions: 1 µM; binder
SgK110 = SgK110 (Homo sapiens, UniProt P0C264); conditions: 1 µM; binder
EPHA8 = EPHA8 (Homo sapiens, UniProt P29322); conditions: 1 µM; binder
CLK4 = CLK4 (Homo sapiens, UniProt Q9HAZ1); conditions: 1 µM; binder
Chain of CLK4 (Q9HAZ1 whole entry): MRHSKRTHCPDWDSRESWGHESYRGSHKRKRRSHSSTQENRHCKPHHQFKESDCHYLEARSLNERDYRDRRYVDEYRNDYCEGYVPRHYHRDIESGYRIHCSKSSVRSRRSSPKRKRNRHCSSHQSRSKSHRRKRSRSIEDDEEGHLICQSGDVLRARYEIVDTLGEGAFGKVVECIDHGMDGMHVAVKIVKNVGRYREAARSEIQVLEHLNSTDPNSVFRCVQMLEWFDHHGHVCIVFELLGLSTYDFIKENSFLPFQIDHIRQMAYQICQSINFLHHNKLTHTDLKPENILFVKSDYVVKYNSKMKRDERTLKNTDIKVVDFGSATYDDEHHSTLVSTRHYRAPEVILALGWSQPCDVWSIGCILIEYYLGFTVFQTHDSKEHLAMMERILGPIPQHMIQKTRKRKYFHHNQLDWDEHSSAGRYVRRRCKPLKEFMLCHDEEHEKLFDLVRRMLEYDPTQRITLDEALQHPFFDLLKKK

LOK = LOK (Homo sapiens, UniProt O94804); conditions: 1 µM; binder
ITK = ITK (Homo sapiens, UniProt Q08881); conditions: 1 µM; binder
RIPK2 = RIPK2 (Homo sapiens, UniProt O43353); conditions: 1 µM; binder
IRAK4 = IRAK4 (Homo sapiens, UniProt Q9NWZ3); conditions: 1 µM; binder
ABL1(F317L) = ABL1(F317L) (Homo sapiens, UniProt P00519, F317L); conditions: 1 µM, binder
Chain of ABL1(F317L) (P00519 whole entry F317L): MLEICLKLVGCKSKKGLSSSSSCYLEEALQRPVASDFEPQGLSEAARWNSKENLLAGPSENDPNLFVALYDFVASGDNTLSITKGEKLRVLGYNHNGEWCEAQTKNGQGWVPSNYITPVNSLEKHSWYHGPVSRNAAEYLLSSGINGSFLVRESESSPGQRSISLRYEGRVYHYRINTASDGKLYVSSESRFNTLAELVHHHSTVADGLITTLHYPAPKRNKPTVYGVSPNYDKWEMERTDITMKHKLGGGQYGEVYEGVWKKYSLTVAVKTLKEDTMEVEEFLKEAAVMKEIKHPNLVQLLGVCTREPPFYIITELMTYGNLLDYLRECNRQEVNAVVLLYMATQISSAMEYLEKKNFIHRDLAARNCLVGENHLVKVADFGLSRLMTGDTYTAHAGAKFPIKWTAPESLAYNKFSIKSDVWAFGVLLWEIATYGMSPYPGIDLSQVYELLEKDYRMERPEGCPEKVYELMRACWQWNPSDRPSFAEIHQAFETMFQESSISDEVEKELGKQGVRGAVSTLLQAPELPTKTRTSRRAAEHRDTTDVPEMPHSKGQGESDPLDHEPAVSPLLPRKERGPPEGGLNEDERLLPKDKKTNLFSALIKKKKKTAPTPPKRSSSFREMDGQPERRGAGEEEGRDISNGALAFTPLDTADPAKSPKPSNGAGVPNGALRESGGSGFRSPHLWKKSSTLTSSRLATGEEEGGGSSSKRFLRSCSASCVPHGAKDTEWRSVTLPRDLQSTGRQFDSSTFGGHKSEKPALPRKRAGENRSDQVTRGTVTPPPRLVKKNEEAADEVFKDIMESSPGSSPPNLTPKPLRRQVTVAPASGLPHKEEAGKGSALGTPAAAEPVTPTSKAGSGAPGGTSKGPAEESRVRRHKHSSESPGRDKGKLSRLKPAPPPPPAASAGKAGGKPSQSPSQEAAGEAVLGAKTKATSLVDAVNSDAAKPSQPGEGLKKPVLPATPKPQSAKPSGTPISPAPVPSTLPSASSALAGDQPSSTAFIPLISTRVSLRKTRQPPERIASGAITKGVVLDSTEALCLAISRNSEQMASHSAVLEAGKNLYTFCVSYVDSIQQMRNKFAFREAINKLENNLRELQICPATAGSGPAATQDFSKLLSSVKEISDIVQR

FLT3-autoinhibited = FLT3-autoinhibited (Homo sapiens, UniProt P36888); conditions: 1 µM; binder
MARK2 = MARK2 (Homo sapiens, UniProt Q7KZI7); conditions: 1 µM; binder
ERN1 = ERN1 (Homo sapiens, UniProt O75460); conditions: 1 µM; binder
Chain of ERN1 (O75460 whole entry): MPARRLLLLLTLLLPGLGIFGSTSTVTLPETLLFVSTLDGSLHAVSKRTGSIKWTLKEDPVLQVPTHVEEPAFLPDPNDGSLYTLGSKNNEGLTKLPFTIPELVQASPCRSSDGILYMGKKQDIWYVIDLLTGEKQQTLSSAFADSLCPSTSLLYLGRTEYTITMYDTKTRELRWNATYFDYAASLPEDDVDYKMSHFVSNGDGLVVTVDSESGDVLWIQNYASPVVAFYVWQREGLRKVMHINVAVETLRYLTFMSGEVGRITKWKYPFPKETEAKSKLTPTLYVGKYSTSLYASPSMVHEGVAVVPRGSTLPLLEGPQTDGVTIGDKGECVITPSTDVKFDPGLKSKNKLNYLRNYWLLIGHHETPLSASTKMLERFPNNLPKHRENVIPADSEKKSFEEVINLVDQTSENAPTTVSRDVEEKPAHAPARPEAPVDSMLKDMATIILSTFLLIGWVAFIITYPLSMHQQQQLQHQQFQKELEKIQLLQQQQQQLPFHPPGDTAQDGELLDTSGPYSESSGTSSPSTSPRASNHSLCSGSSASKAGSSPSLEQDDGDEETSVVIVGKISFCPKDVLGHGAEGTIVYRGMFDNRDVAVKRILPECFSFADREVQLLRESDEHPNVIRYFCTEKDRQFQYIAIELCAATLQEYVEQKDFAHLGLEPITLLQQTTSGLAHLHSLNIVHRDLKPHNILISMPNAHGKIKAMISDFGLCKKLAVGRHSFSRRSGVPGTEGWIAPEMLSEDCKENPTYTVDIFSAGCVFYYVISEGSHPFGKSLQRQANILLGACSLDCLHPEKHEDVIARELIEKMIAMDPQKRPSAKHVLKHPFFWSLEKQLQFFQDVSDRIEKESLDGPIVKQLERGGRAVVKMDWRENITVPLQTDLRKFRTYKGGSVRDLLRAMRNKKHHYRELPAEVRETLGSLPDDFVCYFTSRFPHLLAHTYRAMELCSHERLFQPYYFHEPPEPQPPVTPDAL

ACVR2B = ACVR2B (Homo sapiens, UniProt Q13705); conditions: 1 µM; binder
TRPM6 = TRPM6 (Homo sapiens, UniProt Q9BX84); conditions: 1 µM; binder
ALK = ALK (Homo sapiens, UniProt Q9UM73); conditions: 1 µM; binder
PIK3CA(I800L) = PIK3CA(I800L) (Homo sapiens, UniProt P42336, I800L); conditions: 1 µM; binder
SGK = SGK (Homo sapiens, UniProt O00141); conditions: 1 µM; binder
Chain of SGK (O00141 whole entry): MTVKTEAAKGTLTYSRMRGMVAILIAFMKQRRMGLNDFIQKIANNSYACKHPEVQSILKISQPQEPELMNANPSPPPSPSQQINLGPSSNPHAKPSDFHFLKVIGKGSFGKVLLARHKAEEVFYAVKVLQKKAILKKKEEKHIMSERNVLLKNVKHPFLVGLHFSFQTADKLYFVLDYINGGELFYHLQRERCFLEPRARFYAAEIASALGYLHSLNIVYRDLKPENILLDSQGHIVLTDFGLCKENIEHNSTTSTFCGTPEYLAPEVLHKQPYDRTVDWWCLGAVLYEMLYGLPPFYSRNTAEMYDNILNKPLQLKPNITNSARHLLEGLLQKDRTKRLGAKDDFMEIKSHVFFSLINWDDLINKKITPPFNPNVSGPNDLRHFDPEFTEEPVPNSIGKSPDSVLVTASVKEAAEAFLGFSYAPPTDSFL

EPHB2 = EPHB2 (Homo sapiens, UniProt P29323); conditions: 1 µM; binder
Chain of EPHB2 (P29323 whole entry): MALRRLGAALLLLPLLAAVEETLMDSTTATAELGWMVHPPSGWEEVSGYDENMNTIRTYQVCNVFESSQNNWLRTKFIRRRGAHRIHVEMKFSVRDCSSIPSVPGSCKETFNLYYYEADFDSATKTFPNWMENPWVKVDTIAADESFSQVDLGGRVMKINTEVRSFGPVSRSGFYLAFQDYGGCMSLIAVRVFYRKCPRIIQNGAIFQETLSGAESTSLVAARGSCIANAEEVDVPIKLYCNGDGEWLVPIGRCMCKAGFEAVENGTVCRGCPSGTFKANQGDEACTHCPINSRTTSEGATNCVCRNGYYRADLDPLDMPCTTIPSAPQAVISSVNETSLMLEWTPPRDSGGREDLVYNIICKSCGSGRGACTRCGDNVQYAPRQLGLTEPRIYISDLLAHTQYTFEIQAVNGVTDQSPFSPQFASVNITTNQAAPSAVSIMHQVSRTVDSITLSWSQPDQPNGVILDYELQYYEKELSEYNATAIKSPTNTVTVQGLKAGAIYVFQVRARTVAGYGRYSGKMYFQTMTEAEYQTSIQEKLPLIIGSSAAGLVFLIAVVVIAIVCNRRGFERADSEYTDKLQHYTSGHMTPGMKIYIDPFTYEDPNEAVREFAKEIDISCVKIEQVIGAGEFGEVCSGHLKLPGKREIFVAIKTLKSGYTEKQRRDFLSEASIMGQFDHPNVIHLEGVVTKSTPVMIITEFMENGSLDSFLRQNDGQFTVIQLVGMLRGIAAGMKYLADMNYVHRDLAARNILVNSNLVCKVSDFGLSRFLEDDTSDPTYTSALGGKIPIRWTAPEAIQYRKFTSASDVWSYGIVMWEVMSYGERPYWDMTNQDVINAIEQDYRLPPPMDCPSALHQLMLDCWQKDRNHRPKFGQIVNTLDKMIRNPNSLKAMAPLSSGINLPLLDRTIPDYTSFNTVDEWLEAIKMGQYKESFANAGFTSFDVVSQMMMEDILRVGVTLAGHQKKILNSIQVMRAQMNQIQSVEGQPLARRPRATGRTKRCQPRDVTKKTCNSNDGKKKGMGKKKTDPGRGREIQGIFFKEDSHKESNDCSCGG

KIT(V559D,T670I) = KIT(V559D,T670I) (Homo sapiens, UniProt P10721, T670I/V559D); conditions: 1 µM; binder
VEGFR2 = VEGFR2 (Homo sapiens, UniProt P35968); conditions: 1 µM; binder
KIT(V559D,V654A) = KIT(V559D,V654A) (Homo sapiens, UniProt P10721, V559D/V654A); conditions: 1 µM; binder
FLT3(K663Q) = FLT3(K663Q) (Homo sapiens, UniProt P36888, K663Q); conditions: 1 µM; binder
PIK3CB = PIK3CB (Homo sapiens, UniProt P42338); conditions: 1 µM; binder
PRKCH = PRKCH (Homo sapiens, UniProt P24723); conditions: 1 µM; binder
ERBB4 = ERBB4 (Homo sapiens, UniProt Q15303); conditions: 1 µM; binder

Chain of RPS6KA2 (Q15349 whole entry): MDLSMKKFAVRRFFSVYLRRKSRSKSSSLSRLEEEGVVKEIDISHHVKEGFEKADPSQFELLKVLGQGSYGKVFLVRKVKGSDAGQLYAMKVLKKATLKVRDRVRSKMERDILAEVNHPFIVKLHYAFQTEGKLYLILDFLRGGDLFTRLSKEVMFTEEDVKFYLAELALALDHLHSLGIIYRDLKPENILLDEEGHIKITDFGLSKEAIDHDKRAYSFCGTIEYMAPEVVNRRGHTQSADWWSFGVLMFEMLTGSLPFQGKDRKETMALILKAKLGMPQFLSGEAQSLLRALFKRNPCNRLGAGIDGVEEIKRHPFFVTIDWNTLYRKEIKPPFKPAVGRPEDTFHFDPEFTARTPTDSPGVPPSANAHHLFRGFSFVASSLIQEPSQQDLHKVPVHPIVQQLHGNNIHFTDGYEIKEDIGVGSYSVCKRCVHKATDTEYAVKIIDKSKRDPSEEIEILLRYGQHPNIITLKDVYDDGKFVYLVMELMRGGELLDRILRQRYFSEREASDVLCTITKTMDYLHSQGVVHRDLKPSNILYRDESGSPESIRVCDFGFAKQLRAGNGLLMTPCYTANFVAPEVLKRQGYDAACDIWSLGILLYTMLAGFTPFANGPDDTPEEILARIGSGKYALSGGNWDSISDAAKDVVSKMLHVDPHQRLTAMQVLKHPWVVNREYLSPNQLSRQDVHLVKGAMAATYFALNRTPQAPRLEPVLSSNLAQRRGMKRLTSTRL

## CNc1ncc2cc(-c3ccc(-c4cccc(C)n4)cc3Cl)c(=O)n(C[C@H]3OC[C@H](N)CO3)c2n1 [compound 6, G-5555]
MAP4K3
  Percent Control: 23%
MUSK
  Percent Control: 100%
CDK8
  Percent Control: 100%
RPS6KA2; Kin.Dom.1 N-terminal
  Percent Control: 57%
RPS6KA2; Kin.Dom.2 C-terminal, 1 µM
  Percent Control: 92%
ERBB3
  Percent Control: 86%
SgK110
  Percent Control: 71%
EPHA8
  Percent Control: 72%
CLK4
  Percent Control: 100%
LOK
  Percent Control: 2.1%
ITK
  Percent Control: 100%
RIPK2
  Percent Control: 65%
IRAK4
  Percent Control: 95%
ABL1(F317L); nonphosphorylated
  Percent Control: 87%
ABL1(F317L); phosphorylated
  Percent Control: 100%
FLT3-autoinhibited
  Percent Control: 100%
MARK2
  Percent Control: 49%
ERN1
  Percent Control: 100%
ACVR2B
  Percent Control: 100%
TRPM6
  Percent Control: 100%
ALK
  Percent Control: 84%
PIK3CA(I800L)
  Percent Control: 100%
SGK
  Percent Control: 100%
EPHB2
  Percent Control: 79%
KIT(V559D,T670I)
  Percent Control: 100%
VEGFR2
  Percent Control: 93%
KIT(V559D,V654A)
  Percent Control: 100%
FLT3(K663Q)
  Percent Control: 100%
PIK3CB
  Percent Control: 97%
PRKCH
  Percent Control: 78%
ERBB4
  Percent Control: 100%
